# From PubChem BioAssay (NCI)
# Several values for one entry are separate records, joined by “and”; a condition that tells them apart may be missing. Identical values can stand only once.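 Test compounds were applied to cells in 96-well plates for 48 hours at 5 doses. GI50 is the concentration that inhibits growth by half. TGI: total growth inhibition.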
# Tests used:
# Assay in all cases: DTP human tumour cell line panel, 48 h
# [1] = test system: 786-0 renal
# [2] = test system: A498 renal
# [3] = test system: A549 NSCLC
# [4] = test system: ACHN renal
# [5] = test system: BT-549 breast
# [6] = test system: CAKI-1 renal
# [7] = test system: CCRF-CEM leukemia
# [8] = test system: COLO 205 colon
# [9] = test system: DU-145 prostate
# [10] = test system: EKVX NSCLC
# [11] = test system: HCC-2998 colon
# [12] = test system: HCT-116 colon
# [13] = test system: HCT-15 colon
# [14] = test system: HL-60(TB) leukemia
# [15] = test system: HOP-62 NSCLC
# [16] = test system: HOP-92 NSCLC
# [17] = test system: HS 578T breast
# [18] = test system: HT29 colon
# [19] = test system: IGROV1 ovarian
# [20] = test system: K-562 leukemia
# [21] = test system: KM12 colon
# [22] = test system: LOX IMVI melanoma
# [23] = test system: M14 melanoma
# [24] = test system: MALME-3M melanoma
# [25] = test system: MCF7 breast
# [26] = test system: MDA-MB-231 breast
# [27] = test system: MDA-MB-435
# [28] = test system: MDA-N
# [29] = test system: MOLT-4 leukemia
# [30] = test system: NCI-H226 lung
# [31] = test system: NCI-H23 lung
# [32] = test system: NCI-H460 lung
# [33] = test system: NCI-H522 lung
# [34] = test system: NCI/ADR-RES ovarian
# [35] = test system: OVCAR-3 ovarian
# [36] = test system: OVCAR-4 ovarian
# [37] = test system: OVCAR-5 ovarian
# [38] = test system: OVCAR-8 ovarian
# [39] = test system: PC-3 prostate
# [40] = test system: RPMI-8226 leukemia
# [41] = test system: RXF 393 renal
# [42] = test system: SF-268 CNS
# [43] = test system: SF-295 CNS
# [44] = test system: SF-539 CNS
# [45] = test system: SK-MEL-2 melanoma
# [46] = test system: SK-MEL-28 melanoma
# [47] = test system: SK-MEL-5 melanoma
# [48] = test system: SK-OV-3 ovarian
# [49] = test system: SN12C renal
# [50] = test system: SNB-19 CNS
# [51] = test system: SNB-75 CNS
# [52] = test system: SR leukemia
# [53] = test system: SW-620 colon
# [54] = test system: T-47D breast
# [55] = test system: TK-10 renal
# [56] = test system: U251 CNS
# [57] = test system: UACC-257 melanoma
# [58] = test system: UACC-62 melanoma
# [59] = test system: UO-31 renal
compound,measurement,setting,value
c1ccc2c(c1)[nH]c1c2cc[n+]2cc3c(cc12)CCCC3,GI50,[1],4 µM
same,TGI,[1],16.4 µM and 12.7 µM
same,GI50,[2],3.48 µM
same,TGI,[2],13.9 µM and > 100 µM
same,GI50,[3],4.88 µM
same,TGI,[3],24.6 µM and 30.8 µM
same,TGI,[4],16.1 µM and 14.1 µM
same,GI50,[5],8.96 µM
same,TGI,[5],25.5 µM and 8.29 µM
same,TGI,[6],36.2 µM and 32 µM
same,GI50,[7],2.76 µM
same,TGI,[7],12.7 µM
same,GI50,[8],1.9 µM
same,TGI,[8],5.45 µM and 3.56 µM
same,TGI,[9],11 µM and 17 µM
same,TGI,[10],32.4 µM
same,GI50,[11],2.67 µM
same,TGI,[11],7.71 µM and 4.66 µM
same,GI50,[12],3.3 µM
same,TGI,[12],14.2 µM and 4.66 µM
same,GI50,[13],23.3 µM
same,TGI,[13],> 100 µM and 23.2 µM
same,GI50,[14],1.27 µM
same,TGI,[14],5.39 µM
same,GI50,[15],3.77 µM
same,TGI,[15],17 µM and 7.86 µM
same,GI50,[16],4.57 µM
same,TGI,[16],24.8 µM
same,GI50,[17],2.63 µM
same,TGI,[17],12.2 µM and > 100 µM
same,GI50,[18],2.4 µM
same,TGI,[18],9.74 µM and 19.6 µM
same,GI50,[19],5.59 µM
same,TGI,[19],25 µM and 25.5 µM
same,GI50,[20],2.76 µM
same,TGI,[20],12.5 µM and 10.8 µM
same,GI50,[21],2.3 µM
same,TGI,[21],9.85 µM and 6.53 µM
same,GI50,[22],2.03 µM
same,TGI,[22],5.05 µM and 6.75 µM
same,GI50,[23],3.01 µM
same,TGI,[23],14 µM and 7.29 µM
same,GI50,[24],1.65 µM
same,TGI,[24],3.54 µM
same,TGI,[25],10.9 µM and 11 µM
same,GI50,[26],2.97 µM
same,TGI,[26],10 µM and 12.7 µM
same,TGI,[27],6.34 µM and 7.54 µM
same,TGI,[28],3.21 µM
same,GI50,[29],3.74 µM
same,TGI,[29],13.7 µM and 3.73 µM
same,TGI,[30],7.61 µM and 5.77 µM
same,TGI,[31],6.95 µM
same,GI50,[32],1.66 µM
same,TGI,[32],4.54 µM and 3.22 µM
same,GI50,[33],2.27 µM
same,TGI,[33],5.48 µM and 6.23 µM
same,GI50,[34],93.8 µM
same,TGI,[34],> 100 µM
same,GI50,[35],2.91 µM
same,GI50,[36],2.14 µM
same,TGI,[36],7.6 µM and 5.73 µM
same,GI50,[37],3.87 µM
same,TGI,[37],17.9 µM and 13.6 µM
same,GI50,[38],1.95 µM
same,TGI,[38],7.57 µM and 11.2 µM
same,TGI,[39],10.9 µM and 29 µM
same,GI50,[40],2.16 µM
same,TGI,[40],6.28 µM and 3.73 µM
same,GI50,[41],2.98 µM
same,TGI,[41],12.5 µM
same,TGI,[42],12.8 µM and 18.3 µM
same,TGI,[43],16 µM and 14.5 µM
same,GI50,[44],3 µM
same,TGI,[44],11.7 µM and 6.7 µM
same,GI50,[45],1.44 µM
same,TGI,[46],5.26 µM and 4.19 µM
same,GI50,[47],1.29 µM
same,TGI,[47],3.22 µM and 5.83 µM
same,TGI,[48],14.2 µM and 14.4 µM
same,GI50,[49],3.05 µM
same,TGI,[49],12.8 µM and 12.1 µM
same,TGI,[50],12 µM and 9.35 µM
same,GI50,[51],3.07 µM
same,TGI,[51],12.9 µM and 35.9 µM
same,GI50,[52],2.51 µM
same,TGI,[52],7.52 µM and 4.19 µM
same,GI50,[53],2.35 µM
same,TGI,[53],11.6 µM and 16.2 µM
same,GI50,[54],2.47 µM
same,TGI,[54],13.6 µM and 22.4 µM
same,TGI,[55],25.6 µM
same,TGI,[56],9.77 µM and 12.1 µM
same,GI50,[57],2.09 µM
same,TGI,[57],6.83 µM and 25.6 µM
same,GI50,[58],2.02 µM
same,TGI,[58],4.97 µM
same,GI50,[59],14.4 µM
same,TGI,[59],30.7 µM and 33 µM
O=C1CC(C(O)(C(F)(F)F)C(F)(F)Cl)CCC1C(O)(C(F)(F)F)C(F)(F)Cl (stereo not given),TGI,[1],> 10 µM
same,TGI,[2],> 10 µM
same,TGI,[3],> 10 µM
same,TGI,[4],> 10 µM
same,TGI,[5],> 10 µM
same,TGI,[6],> 10 µM
same,TGI,[7],> 10 µM
same,TGI,[8],> 10 µM
same,TGI,[9],> 10 µM
same,TGI,[10],> 10 µM
same,TGI,[11],> 10 µM
same,TGI,[12],> 10 µM
same,TGI,[13],> 10 µM
same,TGI,[14],> 10 µM
same,TGI,[15],> 10 µM
same,TGI,[16],5.09 µM
same,TGI,[17],> 10 µM
same,TGI,[18],> 10 µM
same,TGI,[19],> 10 µM
same,TGI,[20],> 10 µM
same,TGI,[21],> 10 µM
same,TGI,[22],> 10 µM
same,TGI,[23],> 10 µM
same,TGI,[24],> 10 µM
same,TGI,[25],> 10 µM
same,TGI,[26],> 10 µM
same,TGI,[27],> 10 µM
same,TGI,[28],> 10 µM
same,TGI,[29],> 10 µM
same,TGI,[30],> 10 µM
same,TGI,[31],> 10 µM
same,TGI,[32],> 10 µM
same,TGI,[33],> 10 µM
same,TGI,[34],> 10 µM
same,TGI,[35],> 10 µM
same,TGI,[36],> 10 µM
same,TGI,[37],> 10 µM
same,TGI,[38],> 10 µM
same,TGI,[39],> 10 µM
same,TGI,[40],> 10 µM
same,TGI,[41],> 10 µM
same,TGI,[42],> 10 µM
same,TGI,[43],> 10 µM
same,TGI,[44],> 10 µM
same,TGI,[45],> 10 µM
same,TGI,[46],> 10 µM
same,TGI,[47],> 10 µM
same,TGI,[48],> 10 µM
same,TGI,[49],> 10 µM
same,TGI,[50],> 10 µM
same,TGI,[51],> 10 µM
same,TGI,[52],> 10 µM
same,TGI,[53],> 10 µM
same,TGI,[54],> 10 µM
same,TGI,[55],> 10 µM
same,TGI,[56],> 10 µM
same,TGI,[57],> 10 µM
same,TGI,[58],> 10 µM
Cn1c(=O)c2c(nc(C(=N)SCC(=O)O)n2C)n(C)c1=O,TGI,[1],> 100 µM
same,TGI,[2],66.7 µM
same,TGI,[3],> 100 µM
same,TGI,[4],> 100 µM
same,TGI,[5],> 100 µM
same,TGI,[6],99 µM
same,TGI,[7],35.8 µM
same,TGI,[8],71.5 µM
same,TGI,[9],> 100 µM
same,TGI,[10],> 100 µM
same,TGI,[12],> 100 µM
same,TGI,[13],> 100 µM
same,TGI,[14],52.8 µM
same,TGI,[15],> 100 µM
same,TGI,[16],> 100 µM
same,TGI,[17],> 100 µM
same,TGI,[18],> 100 µM
same,TGI,[19],> 100 µM
same,TGI,[20],> 100 µM
same,TGI,[21],> 100 µM
same,TGI,[22],> 100 µM
same,TGI,[23],> 100 µM
same,TGI,[24],> 100 µM
same,TGI,[25],> 100 µM
same,TGI,[26],> 100 µM
same,TGI,[27],> 100 µM
same,TGI,[28],> 100 µM
same,TGI,[29],50.9 µM
same,TGI,[30],> 100 µM
same,TGI,[31],> 100 µM
same,TGI,[32],> 100 µM
same,TGI,[33],> 100 µM
same,TGI,[34],> 100 µM
same,TGI,[35],> 100 µM
same,TGI,[36],85.6 µM
same,TGI,[37],> 100 µM
same,TGI,[38],> 100 µM
same,TGI,[39],> 100 µM
same,TGI,[40],> 100 µM
same,TGI,[41],> 100 µM
same,TGI,[42],> 100 µM
same,TGI,[43],> 100 µM
same,TGI,[44],> 100 µM
same,TGI,[45],> 100 µM
same,TGI,[46],> 100 µM
same,TGI,[47],37.6 µM
same,TGI,[48],> 100 µM
same,TGI,[49],> 100 µM
same,TGI,[50],> 100 µM
same,TGI,[51],> 100 µM
same,TGI,[52],80.2 µM
same,TGI,[53],> 100 µM
same,TGI,[54],> 100 µM
same,TGI,[55],> 100 µM
same,TGI,[56],> 100 µM
same,TGI,[57],> 100 µM
same,TGI,[58],> 100 µM
same,TGI,[59],> 100 µM
